Source: patent publication US12281301B2, “Sequencing-based proteomics” (THE BROAD INSTITUTE, INC., priority 2018, dated 2025)
Entries after “also recorded” stand apart in the source; their conditions may differ. Peptide text beside a SMILES is read from it. * marks the point of attachment. Cbz = O=C(OCc1ccccc1)*

Experiments:
Type in all cases: cell-based, human
HEK293T cells [1] = assay: TMT labeling whole proteome mass spectrometry, drug-treated versus untreated control cells
Procedure: Mass spectrometry. Cells were grown and stimulated in 10 cm dishes, washed three times in cold PBS, and scraped into 1 ml 8 M urea in water per dish. Protein content of the lysates was quantified using Pierce 660 reagent and a NanoDrop spectrometer. Samples were reduced, iodoacetamide alkylated, digested with Trypsin, labeled with 10-plex TMT (VWR cat no PI90110), and combined. After SPE clean-up and volume reduction by SpeedVac, the combined sample was run on a C18 reverse phase LC using a pH 10 A buffer, and eight fractions were collected. The volume was reduced to 20 μl by SpeedVac. Each fraction was run on an EASY nLC HPLC attached to a Thermo QE-HFX mass spectrometer in nanospray configuration using a 90 minutes acquisition time. Proteins were quantified using the MaxQuant software package.
Statistical analysis. Mass spectrometry reporter intensity data were imported into Perseus software, log-2-transformed, and filtered for missing values as well as reverse peptides or potential contaminants. Data were median-subtracted and significant outliers were determined by performing two-sided unpaired t-tests, correcting for multiple testing using an FDR=5% and s0=0.1, performing 250 randomizations. PATTERNS mean protein level bin data were processed in the same way except without the filtering and normalization steps. Volcano plots were generated using the Perseus software, and all other plots were created using custom code.

[2] = system: clonal mNeon-tagged reporter cell lines; assay: FACS of clonal mNeon-tagged reporter cell lines after drug stimulation
Procedure: (§1) Analytical flow cytometry. For optional genomic DNA staining, 1/20 volume of Hoechst 33342 (10 mg/ml, Thermo) was added to live cells for 15 minutes at 37° C. Cells were washed in PBS, trypsinized, resuspended in media, and analyzed on a CytoFLEX (Beckman Coulter) in 96-well plate mode.

[3] = system: library of tagged HEK293T cells; assay: SBP/PATTERNS protein quantification (FACS binning and tag/barcode sequencing) of drug-treated versus untreated control cells; conditions: for number of proteins significantly affected, by PATTERNS: 6 hours stated for Bortezomib
Procedure: Library-scale RNP-mediated gene tagging. On day one, 18 million HEK293T NeoR-KO cells were plated per 15-cm dish into 32 dishes. On day two, 4 ml of scaled-up transfection mix (see above) were gently added per dish. On day seven, cells were trypsinized and re-plated in media containing 300 μg/ml G418 (Invivogen). The selection media was changed every 4-8 days. On day 25, the library was pre-enriched for detectable fluorescence by FACS sorting, gating on the top-30% mNeon-positive population. The library was expanded for a week and frozen for future use.
Transposition-based Tag Integration Site Sequencing (TTISS). 800,000 cells were resuspended in 80 μl direct lysis buffer (1 mM CaCl2), 3 mM MgCl2, 1 mM EDTA, 1% Triton X-100, 10 mM Tris pH 7.5, 0.2 mg/ml Proteinase K), lysed at 65° C. for 10 minutes, and kept on ice or frozen at −20° C. 25 μl 5×TAPS buffer (50 mM TAPS-NaOH pH 8.5, 25 mM MgCl2), and 21 μl transposon-loaded Tn5 (16 mg/ml, produced as described in Picelli, S. et al. Tn5 transposase and tagmentation procedures for massively scaled sequencing projects. Genome Res 24, 2033-2040, doi: 10.1101/gr.177881.114 (2014), titrated batch-wise for optimal fragment sizes) were added, mixed well, and incubated at 55° C. for 10 minutes. The reaction was mixed with 625 μl buffer PB (Qiagen) and purified using a plasmid miniprep column (Qiagen). Typical yields were 15 μg per column. The tagmentation size distribution was verified on an agarose gel to range from 200 bp to 1 kb. All DNA from a single column was used as template in a 300 μl KOD extreme hot start PCR (Roche) with primers TTISS-mNeon-fwd1 and Tn5-Loading-R2 (Table 1), 12 cycles, Ta=60° C. 6 μl of PCR reaction was used as template in a secondary 50 μl KOD extreme hot start PCR with a unique combination of barcoded primers TTISS-mNeon-fwd2-D50× and TTISS-rev2-D70x(Table 1), 20 cycles, Ta=65° C. Barcoded PCRs were pooled on ice, purified using a PCR column (Qiagen), and run on an agarose gel. Products of 250 bp-1 kb were excised, purified using a gel purification kit (Qiagen), and re-purified using a PCR column (Qiagen). Samples were quantified using a NanoDrop spectrometer and sequenced using a NextSeq High Output kit (Illumina) with 30% PhiX spike-in and the following read settings: 120 cycles read 1, 25 cycles read 2, 8 cycles index 1, and 8 cycles index 2.
Alternatively, 22 bp forward (fwd) reads and 8 bp reverse (rev) reads were aligned to 1 kb windows of the human genomic sequence (hg38) upstream of gRNA target sites not allowing mismatches, and hits were filtered to be in-frame with the annotated ORF (RefSeq). For gRNA-wise protein quantification, counts per gRNA from six adjacent sorted bins were used to calculate the weighted mean bin and variance. For UMI-based evaluation, a dictionary of UMIs was created per sequencing run by calculating a 28-bit hash of nine UMI bases together with one constant donor base and 22 target bases from successfully aligned fwd reads using the same alignment parameters as for gRNA-wise protein quantification. The hash was used to count UMI occurrences and store UMI sequence/target information in an array with typically below 10 conflicts per run. UMIs were collapsed with an edit distance of 1 in order to account for sequencing errors. The UMI dictionary was used to count bin- and UMI-wise reads using the same hash function. Counts per UMI from six adjacent sorted bins were used to calculate the weighted mean bin and variance. All software was written as interactive web tools in JavaScript and will be available through GitHub.
FACS sorting. Cells were trypsinized, washed in FluoroBrite DMEM Media (Thermo) and sorted using a Sony MA900 (where not denoted otherwise) or a MoFlo Astrios sorter (for […], SKMEL28 screens) using a 488 nm laser. Cells were collected in 1 ml growth medium and kept on ice until pelleting and lysis.
De-convolution of sorted libraries using Silent Barcode Sequencing. […]

HEK293T cells [4] = assay: RNA-sequencing transcript expression, drug-treated versus untreated control cells
Procedure: RNA-seq. Whole-cell RNA was purified using an RNeasy Plus Mini Kit (Qiagen). Poly (A) mRNA was enriched using the Poly(A) mRNA Magnetic Isolation Module (NEB). Sequencing libraries were prepared using the NEBNext Ultra II Directional RNA Library Prep kit (NEB), quantified using a NanoDrop (Thermo), and sequenced on the NextSeq sequencer (Illumina). Reads were aligned to the human genome and gene expression was quantified using the online tool BrowserGenome.org (Schmid-Burgk, J. L. & Hornung, V. BrowserGenome.org: web-based RNA-seq data analysis and visualization. Nat Methods 12, 1001, doi: 10.1038/nmeth.3615 (2015)).

HEK293T cells [5] = assay: Immunoblotting validation of predicted drug-regulated proteins; conditions: time points after drug treatment
Procedure: Immunoblotting. Cells were lysed in 6-well plates in 400 μl 2×LDS buffer (Thermo) supplemented with 2×Bolt reducing agent (Thermo), heated to 95° C. for 15 minutes, and cooled on ice. 9 μl lysate was loaded per lane of Bolt 4-12% Bis-Tris Plus gels (Thermo) and run at 100 V for 1:15 h. Blotting was performed using the iBlot PVDF kit (Thermo) and program P-3 for 4 minutes. After blocking for 1 h in TBST 5% BSA, primary antibodies were bound over night at 4° C. in TBST 5% BSA. After triple washing, HRP-conjugated secondary antibodies (Cell Signaling Technology) were bound at 1:5000 dilution in TBST 5% BSA for 1 h at room temperature. Blots were imaged using Pierce ECL (Thermo) on a Chemidoc luminescence imager (Biorad). Primary antibodies used were: RBM39 clone 4G8 (Novus Biologicals), DDIT4 clone EPR18716 (Abcam), BRD2 clone D89B4 (Cell Signaling Technology), RRM2 clone 1E1 (Sigma), HRP-coupled beta-Actin clone 13E5 (Cell Signaling Technology), and cell cycle antibody cocktail (ab136810, Abcam).

MSH6 = assay: MSH6-mNeonGreen reporter cell line assayed by FACS; conditions: for MSH6-mNeonGreen expression after application of single compounds: single compounds at 125 nM for 6 h
Procedure: as §1

PRKDC = assay: PRKDC-mNeonGreen reporter cells assayed by FACS; conditions: 125 nM, indicated time points
Procedure: as §1

[6] = drug-treated vs untreated control cells

NS(=O)(=O)c1ccc(S(=O)(=O)Nc2cccc3c(Cl)c[nH]c23)cc1 [Indisulam]
RBM39 down-regulation by TMT whole proteome mass spectrometry (HEK293T cells [1]; strong but not statistically significant hit): 2 fold | RBM39 depletion validated by FACS of a clonal reporter cell line ([2]; stimulated for six hours): confirmed | effect size of the next potentially depleted protein by SBP ([3]; drug vs DMSO control, comparison with RBM39): −0.37 bins | RBM39 effect size (change of mean protein expression bin) by SBP ([3]; drug vs DMSO control, six sorted expression bins, two replicate runs): −2.1 bins | RBM39 protein level change by SBP/PATTERNS ([3]; drug-treated vs control tagged library): highly specific depletion | significantly depleted proteins by SBP/PATTERNS (specificity) ([3]; two replicates, FDR 5%): only significantly depleted protein | RBM39 RNA level (HEK293T cells [4]; [6]): no significant change | RBM39 depletion validated by western blot (HEK293T cells [5]): confirmed

CC1(C)CC(=O)c2c(C(F)(F)F)nn(-c3ccc(C(N)=O)c(N[C@H]4CC[C@H](OC(=O)CN)CC4)c3)c2C1 [SNX-5422]
MSH6-mNeonGreen expression after application of single compounds (MSH6): downregulation

CC1(C)CC(=O)c2c(C(F)(F)F)nn(-c3ccc(C(N)=O)c(N[C@H]4CC[C@H](O)CC4)c3)c2C1 [SNX2112, SNX-2112]
kinetics of the reduction of MSH6 levels (MSH6; 125 nM, indicated time points): significant depletion in MSH6 levels in under two hours | MSH6-mNeonGreen expression after application of single compounds (MSH6): downregulation | kinetics of the reduction of PRKDC levels (PRKDC): also observed

CC(C)C[C@@H](C=O)NC(=O)[C@H](CC(C)C)NC(=O)[C@H](CC(C)C)NC(=O)OCc1ccccc1 [MG-132] (Cbz-Leu-Leu-Leu-aldehyde)
DDIT4 regulation in clonal mNeon-tagged reporter cell line by FACS ([2]; stimulated for six hours): regulated

CCc1c(O)cc(O)c(C(=O)c2ccc(OCCN3CCOCC3)c(OC)c2)c1CC(=O)N(CCOC)CCOC.Cl [KW-2478]
MSH6-mNeonGreen expression after application of single compounds (MSH6): downregulation

CC(C)C[C@H](NC(=O)[C@H](Cc1ccccc1)NC(=O)c1cnccn1)B(O)O [Bortezomib]
DDIT4 quantification by quantitative mass spectrometry (HEK293T cells [1]; [6]): failed to quantify | outlier / upregulated proteins by TMT whole proteome mass spectrometry (HEK293T cells [1]; drug-treated vs untreated control cells, triplicate): ATF3 and JUN; also recorded: two upregulated proteins | PATTERNS hits DDIT4, ID1, ID2 and JUN validated by FACS of reporter cell lines [2]: confirmed | DDIT4 regulation in clonal mNeon-tagged reporter cell line by FACS ([2]; stimulated for six hours): confirmed | DDIT4 level by PATTERNS ([3]; HEK293T library, 6 hours, change may be non-specific): affected | number of proteins significantly affected, by PATTERNS ([3]; HEK293T library): 55 proteins | DDIT4 level change (mean protein expression bin) by SBP ([3]; topmost change, not statistically significant in the SBP data): +1.6 bins | DDIT4 identification as target by RNA-Seq (HEK293T cells [4]; [6]): could not identify | PATTERNS hits regulated at the transcript level (RNA-sequencing) (HEK293T cells [4]; of the 55 PATTERNS hits): only GADD45B | DDIT4 increase validated by western blot (HEK293T cells [5]): confirmed | PATTERNS hits DDIT4, ID1, ID2 and JUN validated by western blot (HEK293T cells [5]): confirmed

Cc1ncsc1-c1ccc(CNC(=O)[C@@H]2C[C@@H](O)CN2C(=O)[C@@H](NC(=O)COCCOCCOCCNC(=O)C[C@@H]2N=C(c3ccc(Cl)cc3)c3c(sc(C)c3C)-n3c(C)nnc32)C(C)(C)C)cc1 [MZ-1]
BRD4 in mass spectrometry analysis (HEK293T cells [1]; BRD4 not represented in the SBP library): not statistically significant hit | BRD2 down-regulation by mass spectrometry (HEK293T cells [1]; strong albeit not statistically significant hit): 2.3 fold | BRD2 decrease validated by FACS of clonal reporter cell line ([2]; stimulated for six hours): confirmed | BRD protein family members degraded, by PATTERNS ([3]; HEK293T library): degradation of two BRD protein family members, BRD2 and BRD3 | number of proteins significantly affected, by PATTERNS ([3]; HEK293T library): 20 proteins | BRD2 protein level change by SBP ([3]; drug vs DMSO control): significant decrease | BRD2 identification by RNA-Seq (HEK293T cells [4]; [6]): could not be identified | BRD2 decrease validated by western blot (HEK293T cells [5]): confirmed
